What all share (type): biochemical
The target in one assay is T1, JAK3 (Homo sapiens, UniProt P52333).
T1 construct: All four purified enzymes contain only the catalytic domain; His (N); purchased Carna Biosciences, Inc; host or cells: baculovirus expression system
In words: JAK kinase assay (HTRF, phosphorylation of synthetic peptide), JAK3. The note with it: catalytic domain, ATP at Km (2 μM); read-out: JAK3 kinase inhibitory activity (EC50). The protocol:
(§1) Human baculovirus-expressed JAK1, 2, 3 and TYK2 were purchased from Carna Biosciences, Inc. All four purified enzymes contain only the catalytic domain. JAK1 (aa 850-1154) and TYK2 (aa 871-1187) are expressed with an N-terminally fused GST-tag, and JAK2 and JAK3 with an N-terminally fused His-tag.
(§2) Inhibition of phosphorylation of a synthetic peptide was measured in an HTRF-based assay using the TK substrate-Biotin from the Cisbio HTRFKinEASE TK kit. First, 2 μl of TK solution (TK substrate-biotin in kinase buffer [1× enzymatic buffer from HTRFKinEASE TK kit, 1 mM DTT]) is added to a plate containing 1 μl prediluted compound (final assay concentration DMSO: 0.75%). Then, 5 μl kinase-ATP mix (prepared in kinase buffer) is added to the wells and the plates are incubated at RT for 20-30 min. For all four kinases a concentration of ATP that corresponded to the Km for ATP was used. The final concentrations of buffers, substrate, kinase and ATP were: JAK1: 50 mM Hepes buffer pH 7.0, 0.01% BSA, 10 mM MgCl2, 1 mM DTT, 7 μM ATP, 50 nM SEB, 1 μM TK Substrate-Biotin and 5 ng JAK1; JAK2: 50 mM Hepes buffer pH 7.0, 0.01% BSA, 5 mM MgCl2, 1 mM DTT, 4 μM ATP, 1 μM TK Substrate-Biotin and 0.1 ng JAK2; JAK3: 50 mM Hepes buffer pH 7.0, 0.01% BSA, 5 mM MgCl2, 1 mM DTT, 2 μM ATP, 1 μM TK Substrate-Biotin and 0.3 ng JAK3; TYK2: 50 mM Hepes buffer pH 7.0, 0.01% BSA, 5 mM MgCl2, 1 mM DTT, 13 μM ATP, 50 nM SEB, 1 μM TK Substrate-Biotin and 0.8 ng TYK2. Thereafter, the kinase reaction is stopped by adding 4 μl detection mix (final concentrations: 50 mM Hepes buffer pH 7.0, 0.01% BSA, 0.8 M KF, 20 mM EDTA, 42 nM Streptavidin-XL665 and 1:400 STK Ab Cryptate) and the plates are incubated overnight in the dark. The HTRF signal is read using an Envision plate reader.
On the technique in general: In TR-FRET formats the signal depends on donor and acceptor labels being close together.

The target of another assay is T2, TYK2 (Homo sapiens, UniProt P29597).
T2 construct: JAK1 (aa 850-1154) and TYK2 (aa 871-1187) are expressed with an N-terminally fused GST-tag; GST (N); purchased Carna Biosciences, Inc; host or cells: baculovirus expression system
T2 sequence (P29597 871-1187): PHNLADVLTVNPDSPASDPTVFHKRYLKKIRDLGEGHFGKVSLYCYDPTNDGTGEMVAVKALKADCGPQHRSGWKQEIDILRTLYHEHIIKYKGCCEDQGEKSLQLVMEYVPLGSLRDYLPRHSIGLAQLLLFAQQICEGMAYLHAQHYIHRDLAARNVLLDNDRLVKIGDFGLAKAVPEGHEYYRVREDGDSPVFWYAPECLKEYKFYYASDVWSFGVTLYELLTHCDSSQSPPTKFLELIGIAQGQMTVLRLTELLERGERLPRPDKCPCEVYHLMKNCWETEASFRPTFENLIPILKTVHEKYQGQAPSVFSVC
In words: JAK kinase assay (HTRF, phosphorylation of synthetic peptide), TYK2. The note with it: catalytic domain, ATP at Km (13 μM); read-out: TYK2 kinase inhibitory activity (EC50). The protocol:
as §1, §2

The next assay concerns the target T3, JAK2 (Homo sapiens, UniProt O60674).
T3 construct: All four purified enzymes contain only the catalytic domain; His (N); purchased Carna Biosciences, Inc; host or cells: baculovirus expression system
In words: JAK kinase assay (HTRF, phosphorylation of synthetic peptide), JAK2. The note with it: catalytic domain, ATP at Km (4 μM); read-out: JAK2 kinase inhibitory activity (EC50). As for the experimental part:
as §1, §2

In the next assay the target is T4, JAK1 (Homo sapiens, UniProt P23458).
T4 construct: JAK1 (aa 850-1154) and TYK2 (aa 871-1187) are expressed with an N-terminally fused GST-tag; GST (N); purchased Carna Biosciences, Inc; host or cells: baculovirus expression system
Description: JAK kinase assay (HTRF, phosphorylation of synthetic peptide), JAK1. The note with it: catalytic domain, ATP at Km (7 μM); read-out: JAK1 kinase inhibitory activity (EC50). The protocol: as §1, §2

T4 sequence (P23458 850-1154): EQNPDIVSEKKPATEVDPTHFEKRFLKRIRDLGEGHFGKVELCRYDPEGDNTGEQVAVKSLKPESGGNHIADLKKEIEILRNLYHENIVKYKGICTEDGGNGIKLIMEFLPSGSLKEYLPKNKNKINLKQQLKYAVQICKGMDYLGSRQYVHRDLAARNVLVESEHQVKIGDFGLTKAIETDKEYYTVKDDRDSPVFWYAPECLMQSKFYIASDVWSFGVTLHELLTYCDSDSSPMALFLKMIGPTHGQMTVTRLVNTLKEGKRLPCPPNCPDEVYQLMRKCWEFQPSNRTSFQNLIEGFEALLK
T3 sequence (O60674 849-1124 limits assumed): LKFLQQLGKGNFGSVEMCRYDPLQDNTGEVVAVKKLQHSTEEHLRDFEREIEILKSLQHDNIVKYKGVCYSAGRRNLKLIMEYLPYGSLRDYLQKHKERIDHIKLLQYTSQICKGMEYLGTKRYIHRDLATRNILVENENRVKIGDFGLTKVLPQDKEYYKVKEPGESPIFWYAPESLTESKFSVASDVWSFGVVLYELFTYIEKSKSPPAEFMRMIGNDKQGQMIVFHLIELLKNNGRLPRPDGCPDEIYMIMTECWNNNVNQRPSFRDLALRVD
T1 sequence (P52333 822-1111 limits assumed): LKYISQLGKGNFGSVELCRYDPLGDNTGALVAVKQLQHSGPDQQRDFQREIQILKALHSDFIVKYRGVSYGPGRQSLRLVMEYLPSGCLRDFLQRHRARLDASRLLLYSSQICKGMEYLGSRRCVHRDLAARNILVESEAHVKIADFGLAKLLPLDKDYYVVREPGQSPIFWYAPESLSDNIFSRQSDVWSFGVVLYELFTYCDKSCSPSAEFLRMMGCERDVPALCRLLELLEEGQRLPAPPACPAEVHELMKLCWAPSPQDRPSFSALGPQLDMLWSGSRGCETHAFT

Usually EC50 stands for the concentration at which the effect is half-maximal. Regarding `O=S(=O)(N(CCc1ccccc1)CC1CC1)N1CCN(c2ncnc3[nH]ccc23)CC12CC2` [Example 2, 7-(7H-Pyrrolo[2,3-d]pyrimidin-4-yl)-4,7-diaza-spiro[2.5]octane-4-sulfonic acid cyclopropylmethyl-phenethyl-amide], the EC50 at JAK3 is 100 to 500 nM; on TYK2 it was > 500 nM; at JAK2, < 100 nM; on JAK1, < 100 nM.
Regarding `O=S(=O)(N(CCc1ccccc1)CC1CCC1)N1CCN(c2ncnc3[nH]ccc23)CC12CC2` [Example 3, 7-(7H-Pyrrolo[2,3-d]pyrimidin-4-yl)-4,7-diaza-spiro[2.5]octane-4-sulfonic acid cyclobutyl methyl-phenethyl-amide], the EC50 at JAK3 is 100 to 500 nM; at TYK2, > 500 nM; at JAK2 it was < 100 nM; at JAK1 it was 100 to 500 nM.
Turning to `CCC(=O)CN(CCc1ccccc1)S(=O)(=O)N1CCN(c2ncnc3[nH]ccc23)CC12CC2` [Example 4, 7-(7H-Pyrrolo[2,3-d]pyrimidin-4-yl)-4,7-diaza-spiro[2.5]octane-4-sulfonic acid (2-oxo-butyl)-phenethyl-amide], the EC50 at JAK3 was 100 to 500 nM; on TYK2 it was > 500 nM; on JAK2 it was < 100 nM; at JAK1, < 100 nM.
With `O=S(=O)(N(CCCO)CCc1ccccc1)N1CCN(c2ncnc3[nH]ccc23)CC12CC2` [Example 5, 7-(7H-Pyrrolo[2,3-d]pyrimidin-4-yl)-4,7-diaza-spiro[2.5]octane-4-sulfonic acid (3-hydroxy-propyl)-phenethyl-amide], the concentration for a half-maximal effect (EC50) at JAK3 is < 100 nM; at TYK2, 100 to 500 nM; on JAK2 it was < 100 nM; at JAK1, < 100 nM.
Regarding `CC(C)CN(CCc1ccccc1)S(=O)(=O)N1CCN(c2ncnc3[nH]ccc23)CC12CC2` [Example 6, 7-(7H-Pyrrolo[2,3-d]pyrimidin-4-yl)-4,7-diaza-spiro[2.5]octane-4-sulfonic acid isobutyl-phenethyl-amide], the EC50 on JAK3 was 100 to 500 nM; at TYK2, > 500 nM; at JAK2, < 100 nM; at JAK1, 100 to 500 nM.
Consider `CCCN(CCc1ccccc1)S(=O)(=O)N1CCN(c2ncnc3[nH]ccc23)CC12CC2` [Example 7, 7-(7H-Pyrrolo[2,3-d]pyrimidin-4-yl)-4,7-diaza-spiro[2.5]octane-4-sulfonic acid phenethyl-propyl-amide], for which the EC50 at JAK3 was 100 to 500 nM; at TYK2 it was > 500 nM; at JAK2, < 100 nM; at JAK1, < 100 nM.
In the case of `O=S(=O)(N(CCc1ccccc1)CC1CCCCC1)N1CCN(c2ncnc3[nH]ccc23)CC12CC2` [Example 8, 7-(7H-Pyrrolo[2,3-d]pyrimidin-4-yl)-4,7-diaza-spiro[2.5]octane-4-sulfonic acid cyclohexylmethyl-phenethyl-amide], the EC50 at JAK3, at TYK2, on JAK2 and on JAK1 was > 500 nM in each case.
Regarding `O=S(=O)(N(CCCc1ccccc1)CCc1ccccc1)N1CCN(c2ncnc3[nH]ccc23)CC12CC2` [Example 9, 7-(7H-Pyrrolo[2,3-d]pyrimidin-4-yl)-4,7-diaza-spiro[2.5]octane-4-sulfonic acid phenethyl-(3-phenyl-propyl)-amide], the EC50 at JAK3 is > 500 nM; on TYK2, > 500 nM; at JAK2, 100 to 500 nM; at JAK1, > 500 nM.
On to `CN(CCCc1ccccc1)S(=O)(=O)N1CCN(c2ncnc3[nH]ccc23)CC12CC2` [Example 10, 7-(7H-Pyrrolo[2,3-d]pyrimidin-4-yl)-4,7-diaza-spiro[2.5]octane-4-sulfonic acid methyl-(3-phenyl-propyl)-amide], for which the EC50 on JAK3 was 100 to 500 nM; at TYK2, > 500 nM; at JAK2, < 100 nM; on JAK1, < 100 nM.
With `CN(CCC1CCCCC1)S(=O)(=O)N1CCN(c2ncnc3[nH]ccc23)CC12CC2` [Example 11, 7-(7H-Pyrrolo[2,3-d]pyrimidin-4-yl)-4,7-diaza-spiro[2.5]octane-4-sulfonic acid (2-cyclohexyl-ethyl)-methyl-amide], the EC50 on JAK3 was 100 to 500 nM; on TYK2, > 500 nM; at JAK2, < 100 nM; at JAK1, < 100 nM.
In the case of `CN(CC(=O)c1ccccc1)S(=O)(=O)N1CCN(c2ncnc3[nH]ccc23)CC12CC2` [Example 12, 7-(7H-Pyrrolo[2,3-d]pyrimidin-4-yl)-4,7-diaza-spiro[2.5]octane-4-sulfonic acid methyl-(2-oxo-2-phenyl-ethyl)-amide], the EC50 on JAK3 is 100 to 500 nM; on TYK2, > 500 nM; at JAK2, < 100 nM; at JAK1 it was < 100 nM.
Regarding `CN(Cc1cccc(C#N)c1)S(=O)(=O)N1CCN(c2ncnc3[nH]ccc23)CC12CC2` [Example 13, 7-(7H-Pyrrolo[2,3-d]pyrimidin-4-yl)-4,7-diaza-spiro[2.5]octane-4-sulfonic acid (3-cyano-benzyl)-methyl-amide], the EC50 at JAK3 is < 100 nM; on TYK2 it was 100 to 500 nM; at JAK2, < 100 nM; on JAK1 it was < 100 nM.
Regarding `N#CCCCCN(CCc1ccccc1)S(=O)(=O)N1CCN(c2ncnc3[nH]ccc23)CC12CC2` [Example 20, 7-(7H-Pyrrolo[2,3-d]pyrimidin-4-yl)-4,7-diaza-spiro[2.5]octane-4-sulfonic acid (4-cyano-butyl)-phenethyl-amide], the EC50 at JAK3, at JAK2 and on JAK1 was < 100 nM in each case.
For the compound `N#CCCCN(CCc1ccccc1)S(=O)(=O)N1CCN(c2ncnc3[nH]ccc23)CC12CC2` [Example 33, 7-(7H-Pyrrolo[2,3-d]pyrimidin-4-yl)-4,7-diaza-spiro[2.5]octane-4-sulfonic acid (3-cyano-propyl)-phenethyl-amide], the EC50 at JAK3, on JAK2 and on JAK1 was < 100 nM in each case.
`N#CCCN(C1CC1)S(=O)(=O)N1CCN(c2ncnc3[nH]ccc23)CC12CC2` [Example 41, 7-(7H-Pyrrolo[2,3-d]pyrimidin-4-yl)-4,7-diaza-spiro[2.5]octane-4-sulfonic acid (2-cyano-ethyl)-cyclopropyl-amide]: the EC50 on JAK3, at JAK2 and on JAK1 was < 100 nM in each case.
For `O=S(=O)(NCCO)N1CCN(c2ncnc3[nH]ccc23)CC12CC2` [Example 53, 7-(7H-Pyrrolo[2,3-d]pyrimidin-4-yl)-4,7-diaza-spiro[2.5]octane-4-sulfonic acid (2-hydroxy-ethyl)-amide], the EC50 on JAK3, on JAK2 and on JAK1 was < 100 nM throughout.
For the compound `CN(Cc1ccc(C(F)(F)F)cc1)S(=O)(=O)N1CCN(c2ncnc3[nH]ccc23)CC12CC2` [Example 81, N-methyl-5-(7H-pyrrolo[2,3-d]pyrimidin-4-yl)-N-[[4-(trifluoromethyl)phenyl]methyl]-5,8-diazaspiro[2.5]octane-8-sulfonamide], the EC50 at TYK2 was > 500 nM; at JAK2, < 100 nM; on JAK1, < 100 nM.

The values are drawn from patent US9233964B2, “Sulfamide piperazine derivatives as protein tyrosine kinase inhibitors and pharmaceutical use therof” (LEO PHARMA A/S, priority 2011, dated 2016).
